Laboratory results from patent publication US8192962B2, “Processes for detecting toxic substances” (Daikin Industries, Ltd., priority 2001, dated 2012).

Tested on: Mitochondria-located protein genes
Assay: DNA chip mRNA expression in yeast, mitochondria-located protein genes (Table 2)
Assay type: cell-based, Saccharomyces cerevisiae S288C
Conditions: cells incubated two hours with the chemical substance
Outline: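 Ratios compare mRNA levels in stressed and control S. cerevisiae. Each toxicant was applied for two hours to log-phase cultures at 25° C. at a sub-lethal, growth-inhibiting level; fluorescent cDNA (Cy3- or Cy5-dUTP) was hybridized to a genome-wide yeast chip for over 12 h at 65° C.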

`C=CC=O` [(14), acrolein] was tested, and the “The level of expressed mRNA in the presence of chemical substance/The level of expressed mRNA in the absence of chemical substance” value (yeast gene YJR121W) was 0.7, the “The level of expressed mRNA in the presence of chemical substance/The level of expressed mRNA in the absence of chemical substance” value (yeast gene YKL003C) was 2.0 and the “The level of expressed mRNA in the presence of chemical substance/The level of expressed mRNA in the absence of chemical substance” value (yeast gene YKL016C) was 1.6. For the same compound, the “The level of expressed mRNA in the presence of chemical substance/The level of expressed mRNA in the absence of chemical substance” value (yeast gene YKL141W) was 1.4, the “The level of expressed mRNA in the presence of chemical substance/The level of expressed mRNA in the absence of chemical substance” value (yeast gene YKL142W) was 2.3 and the “The level of expressed mRNA in the presence of chemical substance/The level of expressed mRNA in the absence of chemical substance” value (yeast gene YKL148C) was 0.8. For the same compound, the “The level of expressed mRNA in the presence of chemical substance/The level of expressed mRNA in the absence of chemical substance” value (yeast gene YKL170W) was 1.3, the “The level of expressed mRNA in the presence of chemical substance/The level of expressed mRNA in the absence of chemical substance” value (yeast gene YKL194C) was 1.4 and the “The level of expressed mRNA in the presence of chemical substance/The level of expressed mRNA in the absence of chemical substance” value (yeast gene YKR066C) was 1.5. The “The level of expressed mRNA in the presence of chemical substance/The level of expressed mRNA in the absence of chemical substance” value (yeast gene YLL041C) was 1.2, the “The level of expressed mRNA in the presence of chemical substance/The level of expressed mRNA in the absence of chemical substance” value (yeast gene YLR038C) was 1.6 and the “The level of expressed mRNA in the presence of chemical substance/The level of expressed mRNA in the absence of chemical substance” value (yeast gene YLR259C) was 0.8. For the same compound, the “The level of expressed mRNA in the presence of chemical substance/The level of expressed mRNA in the absence of chemical substance” value (yeast gene YLR295C) was 1.2, the “The level of expressed mRNA in the presence of chemical substance/The level of expressed mRNA in the absence of chemical substance” value (yeast gene YLR304C) was 0.7 and the “The level of expressed mRNA in the presence of chemical substance/The level of expressed mRNA in the absence of chemical substance” value (yeast gene YLR348C) was 1.0. For the same compound, the “The level of expressed mRNA in the presence of chemical substance/The level of expressed mRNA in the absence of chemical substance” value (yeast gene YLR395C) was 1.7, the “The level of expressed mRNA in the presence of chemical substance/The level of expressed mRNA in the absence of chemical substance” value (yeast gene YML054C) was 2.1 and the “The level of expressed mRNA in the presence of chemical substance/The level of expressed mRNA in the absence of chemical substance” value (yeast gene YML120C) was 0.8. The “The level of expressed mRNA in the presence of chemical substance/The level of expressed mRNA in the absence of chemical substance” value (yeast gene YML129C) was 1.4, the “The level of expressed mRNA in the presence of chemical substance/The level of expressed mRNA in the absence of chemical substance” value (yeast gene YMR023C) was 1.6 and the “The level of expressed mRNA in the presence of chemical substance/The level of expressed mRNA in the absence of chemical substance” value (yeast gene YMR035W) was 1.3. The “The level of expressed mRNA in the presence of chemical substance/The level of expressed mRNA in the absence of chemical substance” value (yeast gene YMR083W) was 0.8, the “The level of expressed mRNA in the presence of chemical substance/The level of expressed mRNA in the absence of chemical substance” value (yeast gene YMR089C) was 0.9 and the “The level of expressed mRNA in the presence of chemical substance/The level of expressed mRNA in the absence of chemical substance” value (yeast gene YMR152W) was 1.1. The “The level of expressed mRNA in the presence of chemical substance/The level of expressed mRNA in the absence of chemical substance” value (yeast gene YMR203W) was 0.7, the “The level of expressed mRNA in the presence of chemical substance/The level of expressed mRNA in the absence of chemical substance” value (yeast gene YMR267W) was 1.0 and the “The level of expressed mRNA in the presence of chemical substance/The level of expressed mRNA in the absence of chemical substance” value (yeast gene YNL055C) was 0.9. For the same compound, the “The level of expressed mRNA in the presence of chemical substance/The level of expressed mRNA in the absence of chemical substance” value (yeast gene YNL071W) was 0.8, the “The level of expressed mRNA in the presence of chemical substance/The level of expressed mRNA in the absence of chemical substance” value (yeast gene YNL073W) was 0.7 and the “The level of expressed mRNA in the presence of chemical substance/The level of expressed mRNA in the absence of chemical substance” value (yeast gene YNL104C) was 0.9. For the same compound, the “The level of expressed mRNA in the presence of chemical substance/The level of expressed mRNA in the absence of chemical substance” value (yeast gene YNL256W) was 0.7, the “The level of expressed mRNA in the presence of chemical substance/The level of expressed mRNA in the absence of chemical substance” value (yeast gene YOL096C) was 1.4 and the “The level of expressed mRNA in the presence of chemical substance/The level of expressed mRNA in the absence of chemical substance” value (yeast gene YOR020C) was 1.6. For the same compound, the “The level of expressed mRNA in the presence of chemical substance/The level of expressed mRNA in the absence of chemical substance” value (yeast gene YOR037W) was 1.0, the “The level of expressed mRNA in the presence of chemical substance/The level of expressed mRNA in the absence of chemical substance” value (yeast gene YOR100C) was 1.4 and the “The level of expressed mRNA in the presence of chemical substance/The level of expressed mRNA in the absence of chemical substance” value (yeast gene YOR130C) was 1.3. The “The level of expressed mRNA in the presence of chemical substance/The level of expressed mRNA in the absence of chemical substance” value (yeast gene YOR142W) was 0.8, the “The level of expressed mRNA in the presence of chemical substance/The level of expressed mRNA in the absence of chemical substance” value (yeast gene YOR150W) was 1.6 and the “The level of expressed mRNA in the presence of chemical substance/The level of expressed mRNA in the absence of chemical substance” value (yeast gene YOR176W) was 0.8. For the same compound, the “The level of expressed mRNA in the presence of chemical substance/The level of expressed mRNA in the absence of chemical substance” value (yeast gene YOR187W) was 0.6, the “The level of expressed mRNA in the presence of chemical substance/The level of expressed mRNA in the absence of chemical substance” value (yeast gene YOR316C) was 1.0 and the “The level of expressed mRNA in the presence of chemical substance/The level of expressed mRNA in the absence of chemical substance” value (yeast gene YPL040C) was 1.1. For the same compound, the “The level of expressed mRNA in the presence of chemical substance/The level of expressed mRNA in the absence of chemical substance” value (yeast gene YPL134C) was 1.4, the “The level of expressed mRNA in the presence of chemical substance/The level of expressed mRNA in the absence of chemical substance” value (yeast gene YPL135W) was 1.1 and the “The level of expressed mRNA in the presence of chemical substance/The level of expressed mRNA in the absence of chemical substance” value (yeast gene YPL215W) was 1.2. For the same compound, the “The level of expressed mRNA in the presence of chemical substance/The level of expressed mRNA in the absence of chemical substance” value (yeast gene YPL262W) was 1.2, the “The level of expressed mRNA in the presence of chemical substance/The level of expressed mRNA in the absence of chemical substance” value (yeast gene YPR024W) was 0.7 and the “The level of expressed mRNA in the presence of chemical substance/The level of expressed mRNA in the absence of chemical substance” value (yeast gene YPR037C) was 1.6. For the same compound, the “The level of expressed mRNA in the presence of chemical substance/The level of expressed mRNA in the absence of chemical substance” value (yeast gene YPR047W) was 1.0 and the “The level of expressed mRNA in the presence of chemical substance/The level of expressed mRNA in the absence of chemical substance” value (yeast gene YPR134W) was 1.5.
